Test results taken from the supplement of paper PMC10307832.

Compound: O=C(c1cc(Cc2n[nH]c(=O)c3ccccc23)ccc1F)N1CCN(C(=O)C2CC2)CC1 [Olaparib]
Test: relative viability (nuclei count vs DMSO), 5 days (fraction); higher = more cells survive
Settings: 0.08 µM
In short: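 Viability here means nuclei in treated wells divided by nuclei in vehicle wells, reported as the median across plates. Only plates with control CV below 25% and at least one doubling passed. Lung cancer cell lines in 1536-well plates were exposed to five √10-spaced library-drug doses for 5 days and counted from 4× Hoechst images in MetaXpress.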

Row | Cell Line | relative viability
1 | 201T | 1.01
2 | A549 | 1.13
3 | A-427 | 1.09
4 | ABC-1 | 1.15
5 | BEN | 0.948
6 | CAL-12T | 1.21
7 | COR-L23 | 1.04
8 | COR-L 105 | 0.896
9 | Calu-6 | 1.13
10 | ChaGo-K-1 | 1.05
11 | EBC-1 | 1.2
12 | EKVX | 1.03
13 | EMC-BAC-2 | 1.1
14 | EPLC-272H | 1.17
15 | H3255 | 1.01
16 | HARA | 1.14
17 | HCC-15 | 1.09
18 | HCC-44 | 1.04
19 | HCC-78 | 1.1
20 | HCC-366 | 1.05
21 | HCC-827 | 0.999
22 | HOP-62 | 1.08
23 | IA-LM | 1.04
24 | LC-2-ad | 1.09
25 | LCLC-97TM1 | 1.02
26 | LCLC-103H | 1.04
27 | LK-2 | 1.19

Row | Cell Line | relative viability
28 | LOU-NH91 | 1.16
29 | LU99A | 0.98
30 | LXF-289 | 1.12
31 | NCI-H23 | 1.23
32 | NCI-H322M | 1.06
33 | NCI-H358 | 0.969
34 | NCI-H441 | 1.13
35 | NCI-H460 | 1.08
36 | NCI-H520 | 1.02
37 | NCI-H522 | 1.08
38 | NCI-H596 | 0.987
39 | NCI-H647 | 1.08
40 | NCI-H650 | 1.13
41 | NCI-H661 | 1.02
42 | NCI-H727 | 1.04
43 | NCI-H838 | 1.02
44 | NCI-H1299 | 1.08
45 | NCI-H1355 | 1.02
46 | NCI-H1395 | 1.01
47 | NCI-H1437 | 1.02
48 | NCI-H1563 | 1.16
49 | NCI-H1623 | 1.07
50 | NCI-H1648 | 0.956
51 | NCI-H1650 | 1.21
52 | NCI-H1651 | 0.934
53 | NCI-H1666 | 0.985
54 | NCI-H1703 | 1.1

Row | Cell Line | relative viability
55 | NCI-H1734 | 1.06
56 | NCI-H1755 | 1.08
57 | NCI-H1792 | 0.923
58 | NCI-H1915 | 1.02
59 | NCI-H1944 | 0.921
60 | NCI-H1975 | 0.985
61 | NCI-H1993 | 0.909
62 | NCI-H2009 | 1.07
63 | NCI-H2023 | 0.98
64 | NCI-H2085 | 1.16
65 | NCI-H2087 | 1.31
66 | NCI-H2126 | 1.07
67 | NCI-H2170 | 0.973
68 | NCI-H2228 | 1.12
69 | NCI-H2342 | 0.974
70 | NCI-H2347 | 1.09
71 | NCI-H2405 | 1.09
72 | NCI-H3122 | 1
73 | PC-3 [JPC-3] | 1.06
74 | PC-14 | 1.14
75 | RERF-LC-KJ | 1.06
76 | SK-LU-1 | 1.13
77 | SK-MES-1 | 1.09
78 | SW 900 | 0.879
79 | SW 1573 | 1.1
80 | UMC-11 | 1.03

Same assay, conditions: 0.253 µM

Row | Cell Line | relative viability
81 | 201T | 0.888
82 | A549 | 0.875
83 | A-427 | 0.945
84 | ABC-1 | 0.882
85 | BEN | 0.775
86 | CAL-12T | 0.966
87 | COR-L23 | 1.04
88 | COR-L 105 | 0.87
89 | Calu-6 | 0.936
90 | ChaGo-K-1 | 0.925
91 | EBC-1 | 0.883
92 | EKVX | 0.885
93 | EMC-BAC-2 | 0.91
94 | EPLC-272H | 0.889
95 | H3255 | 0.869
96 | HARA | 0.852
97 | HCC-15 | 0.904
98 | HCC-44 | 0.949
99 | HCC-78 | 0.836
